30 molecules from ChEMBL document CHEMBL4033720, “Discovery of novel cyclic peptide inhibitors of dengue virus NS2B-NS3 protease with antiviral activity” (Bioorg Med Chem Lett, 2017) can be followed below.

Molecules are shown by their SMILES. Where a SMILES comes first, the peptide text is derived from it.

A short description of data set [1]: Inhibition of dengue virus 2 NS2B-NS3 protease pre-incubated for 10 mins before Boc-Gly-Arg-Arg-peptidyl-4-methylcoumaryl-7-amide substrate addition and measured after 2 hrs by fluorescence based assay. More on the design: species or system dengue virus type 2.
Data set [2] in a line: Selectivity index, ratio of CC50 for toxicity in BHK21 cells to EC50 for antiviral activity against dengue virus 2 infected in BHK21 cells. In kind it is cell-based. Conditions: hamster, read-out: Ratio CC50/EC50; call rule not given here.
A further data set relates to dengue virus type 2. Put plainly: Antiviral activity against dengue virus 2 infected in BHK21 cells assessed as inhibition of virus-induced cytopathic effect after 4 days by resazurin dye based method. In kind it is functional, cell-based.
The nature of data set [3]: Toxicity in BHK21 cells assessed a reduction in cell viability after 4 days by resazurin dye based method. More on the design: species or system Mesocricetus auratus, BHK-21. Conditions: hamster.
The nature of data set [4]: Stability assessed as dengue virus 2 NS2B-NS3 protease-mediated compound degradation at 200 uM in presence of […] incubated for 0 to 22.5 hrs by LC-MS method. The note with it: dengue virus type 2, 200 µM. The format is ADME.
[5] abbreviates: Dengue virus, BHK-21, 96 h, read-out: EC50.

In data set [1], `C[C@H]1NC(=O)[C@@H](Cc2ccccc2)NC(=O)[C@H](CO)NC(=O)[C@H](CCc2ccccc2)NC(=O)[C@H](CO)NC(=O)[C@H](CCCCN)NC(=O)[C@H](CCCNC(=N)N)NC(=O)[C@H](CCCCN)NC1=O` showed an IC50 of 3.3 µM. In data set [1], `C[C@@H]1NC(=O)[C@H](C)NC(=O)[C@H](CCc2ccccc2)NC(=O)[C@H](CO)NC(=O)[C@H](CCCCN)NC(=O)[C@H](CCCNC(=N)N)NC(=O)[C@H](CCCCN)NC(=O)CNC1=O` (HELM PEPTIDE1{A.A.G.K.R.K.S.[O=C([C@H](CCc1ccccc1)N[*:1])[*:2]]}$PEPTIDE1,PEPTIDE1,1:R1-8:R2$$$V2.0) had an IC50 of 18.4 µM. This IC50 is about 5.6-fold higher than that of the molecule before. For the molecule `N=C(N)NCCC[C@@H]1NC(=O)[C@H](CCCNC(=N)N)NC(=O)[C@@H](CCCNC(=N)N)NC(=O)[C@@H](Cc2ccc3ccccc3c2)NC(=O)[C@H](Cc2ccccc2)NC(=O)[C@H](CCc2ccccc2)NC(=O)[C@@H](Cc2ccc3ccccc3c2)NC(=O)[C@H](CCCCN)NC1=O`, the selectivity ratio in data set [2] is over 10. In data set [1], this molecule registered an IC50 of 1.1 µM. For the same molecule, in the data set on dengue virus type 2 (setting [5]), the EC50 is 2 µM. Moreover, the midpoint of cytotoxicity in data set [3], the CC50 at 96 h, lay at 24 µM. On to `N=C(N)NCCC[C@@H]1NC(=O)[C@H](CCCCN)NC(=O)[C@@H]2CCCN2C(=O)[C@@H](Cc2ccccc2)NC(=O)[C@H](CO)NC(=O)[C@H](CCc2ccccc2)NC(=O)[C@H](CO)NC(=O)[C@H](CCCCN)NC1=O`, for which, in data set [1], 52 µM corresponded to half-maximal inhibition (IC50).

Regarding `C[C@@H]1NC(=O)CNC(=O)[C@H](C)NC(=O)[C@H](CS)NC(=O)CNC(=O)[C@H](CO)NC(=O)[C@H](CCCCN)NC(=O)[C@H](CCCNC(=N)N)NC1=O` (HELM PEPTIDE1{A.G.A.R.K.S.G.C}$PEPTIDE1,PEPTIDE1,1:R1-8:R2$$$V2.0), the IC50 in data set [1] was over 200 µM. In turn, `C[C@@H]1NC(=O)[C@H](CS)NC(=O)[C@H](Cc2ccccc2)NC(=O)[C@H](CO)NC(=O)[C@H](CCCCN)NC(=O)[C@H](CCCNC(=N)N)NC(=O)[C@H](CCCCN)NC(=O)CNC1=O` (HELM PEPTIDE1{A.G.K.R.K.S.F.C}$PEPTIDE1,PEPTIDE1,1:R1-8:R2$$$V2.0) came in with an IC50 in data set [1] of 39.3 µM. In the case of `C[C@@H]1NC(=O)[C@H](CS)NC(=O)CNC(=O)[C@H](CO)NC(=O)[C@H](CCCCN)NC(=O)[C@H](C)NC(=O)[C@H](CCCCN)NC(=O)CNC1=O` (HELM PEPTIDE1{A.G.K.A.K.S.G.C}$PEPTIDE1,PEPTIDE1,1:R1-8:R2$$$V2.0), the IC50 in data set [1] is over 200 µM. In data set [1], `C[C@@H]1NC(=O)[C@H](CCc2ccccc2)NC(=O)[C@H](CO)NC(=O)[C@H](CCCCN)NC(=O)[C@H](CCCNC(=N)N)NC(=O)[C@H](CCCCN)NC(=O)CNC(=O)[C@H](c2ccccc2)NC1=O` yielded an IC50 of 22.2 µM. In data set [1], `N=C(N)NCCC[C@@H]1NC(=O)[C@H](CCCCN)NC(=O)[C@H]2CCCN2C(=O)[C@@H](Cc2ccccc2)NC(=O)[C@H](CO)NC(=O)[C@H](CCc2ccccc2)NC(=O)[C@H](CO)NC(=O)[C@H](CCCCN)NC1=O` gave an IC50 of 0.95 µM. Moreover, the EC50 result with dengue virus type 2 is given as “Not Active”. Further, the Stability result in data set [4] is given as “Unstable”. In turn, `C[C@@H]1NC(=O)[C@H](CS)NC(=O)CNC(=O)[C@H](C)NC(=O)[C@H](CCCCN)NC(=O)[C@H](CCCNC(=N)N)NC(=O)[C@H](CCCCN)NC(=O)CNC1=O` (HELM PEPTIDE1{A.G.C.A.G.K.R.K}$PEPTIDE1,PEPTIDE1,1:R1-8:R2$$$V2.0) came in with an IC50 in data set [1] of over 200 µM. In the case of `N=C(N)NCCC[C@@H]1NC(=O)[C@H](CCCCN)NC(=O)CNC(=O)[C@@H](Cc2ccccc2)NC(=O)[C@H](CO)NC(=O)[C@H](CCc2ccccc2)NC(=O)[C@H](CO)NC(=O)[C@H](CCCCN)NC1=O`, in data set [1], inhibition was half-maximal at 5 µM (IC50). As to `N=C(N)NCCC[C@@H]1NC(=O)[C@H](CCCNC(=N)N)NC(=O)[C@H]2CCCN2C(=O)[C@@H](Cc2ccccc2)NC(=O)[C@H](CO)NC(=O)[C@H](Cc2ccc(-c3ccccc3)cc2)NC(=O)[C@H](CO)NC(=O)[C@H](CCCCN)NC1=O`, in data set [1], it took 3.8 µM to reach half-maximal inhibition (IC50). The EC50 in the data set on dengue virus type 2 (setting [5]) came to 108 µM. Also, in data set [3], the CC50 at 96 h is over 400 µM. Consider `N=C(N)NCCC[C@@H]1NC(=O)[C@H](CCCNC(=N)N)NC(=O)[C@@H](CCCNC(=N)N)NC(=O)[C@@H](Cc2ccccc2)NC(=O)[C@H](Cc2ccc3ccccc3c2)NC(=O)[C@H](CCc2ccccc2)NC(=O)[C@H](CO)NC(=O)[C@H](CCCCN)NC1=O`, for which, in data set [1], the IC50 was 1.5 µM. Moreover, in the data set with dengue virus type 2 (setting [5]), the EC50 was determined as 48.5 µM. The molecule also gave a CC50 at 96 h in data set [3] of 210 µM. The corresponding values for `N=C(N)NCCC[C@@H]1NC(=O)[C@H](CCCNC(=N)N)NC(=O)[C@@H](CCCNC(=N)N)NC(=O)[C@@H](Cc2ccccc2)NC(=O)[C@H](CO)NC(=O)[C@H](Cc2ccc(-c3ccccc3)cc2)NC(=O)[C@H](CO)NC(=O)[C@H](CCCCN)NC1=O` are 3.7 µM, 87.5 µM and over 400 µM. For `N=C(N)NCCC[C@@H]1NC(=O)[C@H](CCCCN)NC(=O)[C@H]2CCCN2C(=O)[C@@H](Cc2ccccc2)NC(=O)[C@H](CO)NC(=O)[C@H](Cc2ccc3ccccc3c2)NC(=O)[C@H](CO)NC(=O)[C@H](CCCCN)NC1=O` the same measures were 2.6 µM, 306 µM and over 400 µM. In the case of `C[C@@H]1NC(=O)[C@H](CS)NC(=O)CNC(=O)[C@H](CO)NC(=O)[C@H](C)NC(=O)[C@H](CCCNC(=N)N)NC(=O)[C@H](CCCCN)NC(=O)CNC1=O` (HELM PEPTIDE1{A.G.K.R.A.S.G.C}$PEPTIDE1,PEPTIDE1,1:R1-8:R2$$$V2.0), the IC50 in data set [1] is over 200 µM. `C[C@@H]1NC(=O)[C@H](CS)NC(=O)[C@@H](CCc2ccccc2)NC(=O)[C@H](CO)NC(=O)[C@H](CCCCN)NC(=O)[C@H](CCCNC(=N)N)NC(=O)[C@H](CCCCN)NC(=O)CNC1=O` showed an IC50 in data set [1] of 38.7 µM. Molecule `N=C(N)NCCC[C@@H]1NC(=O)[C@H](CCCCN)NC(=O)[C@H]2CCCN2C(=O)[C@@H](Cc2ccccc2)NC(=O)[C@H](CO)NC(=O)[C@H](Cc2ccc(-c3ccccc3)cc2)NC(=O)[C@H](CO)NC(=O)[C@H](CCCCN)NC1=O` came in with an IC50 in data set [1] of 3.8 µM. Also, the EC50 in the data set with dengue virus type 2 (setting [5]) turned out to be 293 µM. In data set [3], this molecule returned a CC50 at 96 h of over 400 µM.

Turning to `C[C@@H]1NC(=O)[C@H](CS)NC(=O)[C@H](c2ccccc2)NC(=O)[C@H](CO)NC(=O)[C@H](CCCCN)NC(=O)[C@H](CCCNC(=N)N)NC(=O)[C@H](CCCCN)NC(=O)CNC1=O` (HELM PEPTIDE1{A.G.K.R.K.S.[Phg].C}$PEPTIDE1,PEPTIDE1,1:R1-8:R2$$$V2.0), the IC50 in data set [1] stood at 22.1 µM. `C[C@@H]1NC(=O)[C@H](CCc2ccccc2)NC(=O)[C@H](CO)NC(=O)[C@H](CCCCN)NC(=O)[C@H](CCCNC(=N)N)NC(=O)[C@H](CCCCN)NC(=O)CNC(=O)[C@H](CCc2ccccc2)NC1=O`: the IC50 in data set [1] worked out at 25.6 µM. In the case of `C[C@@H]1NC(=O)[C@H](CCc2ccccc2)NC(=O)[C@H](CO)NC(=O)[C@H](CCCCN)NC(=O)[C@H](CCCNC(=N)N)NC(=O)[C@H](CCCCN)NC(=O)CNC(=O)[C@@H](Cc2ccccc2)NC1=O`, inhibition in data set [1] was half-maximal at 7.6 µM (IC50). Against the preceding molecule, the IC50 is about 3.4-fold lower. In data set [1], `C[C@@H]1NC(=O)[C@@H](Cc2ccccc2)NC(=O)[C@H](CO)NC(=O)[C@H](CCc2ccccc2)NC(=O)[C@H](CO)NC(=O)[C@H](CCCCN)NC(=O)[C@H](CCCNC(=N)N)NC(=O)[C@H](CCCCN)NC1=O` registered an IC50 of 28.5 µM. Compared with the last molecule, the IC50 is about 3.8-fold higher.

`C[C@@H]1NC(=O)[C@H](CCc2ccccc2)NC(=O)[C@H](CO)NC(=O)[C@H](CCCCN)NC(=O)[C@H](CCCNC(=N)N)NC(=O)[C@H](CCCCN)NC(=O)CNC(=O)[C@H](Cc2ccccc2)NC1=O` had an IC50 in data set [1] of 19.8 µM. With `C[C@@H]1NC(=O)[C@H](CCc2ccccc2)NC(=O)[C@H](CO)NC(=O)[C@H](CCCCN)NC(=O)[C@H](CCCNC(=N)N)NC(=O)[C@H](CCCCN)NC(=O)CNC(=O)[C@@H](c2ccccc2)NC1=O`, the IC50 in data set [1] was determined as 15.1 µM. This IC50 and that of the molecule before are within 1.5-fold of each other. As for `C[C@@H]1NC(=O)[C@H](CS)NC(=O)[C@H](CCc2ccccc2)NC(=O)[C@H](CO)NC(=O)[C@H](CCCCN)NC(=O)[C@H](CCCNC(=N)N)NC(=O)[C@H](CCCCN)NC(=O)CNC1=O`, half-maximal inhibition in data set [1] (IC50) required 9.2 µM. Regarding `C[C@@H]1NC(=O)[C@H](CCc2ccccc2)NC(=O)[C@H](CO)NC(=O)[C@H](CCCCN)NC(=O)[C@H](CCCNC(=N)N)NC(=O)[C@H](CCCCN)NC(=O)CNC(=O)[C@@H](CCc2ccccc2)NC1=O`, the IC50 in data set [1] stood at 16.2 µM. The molecule `C[C@@H]1NC(=O)[C@H](CS)NC(=O)CNC(=O)[C@H](CO)NC(=O)[C@H](CCCCN)NC(=O)[C@H](CCCNC(=N)N)NC(=O)[C@H](CCCCN)NC(=O)CNC1=O` (HELM PEPTIDE1{A.G.K.R.K.S.G.C}$PEPTIDE1,PEPTIDE1,1:R1-8:R2$$$V2.0) showed an IC50 in data set [1] of 114 µM. The molecule `C[C@@H]1NC(=O)CNC(=O)[C@H](CO)NC(=O)[C@H](CCCCN)NC(=O)[C@H](CCCNC(=N)N)NC(=O)[C@H](CCCCN)NC(=O)CNC(=O)[C@H](C)NC1=O` (HELM PEPTIDE1{A.A.G.K.R.K.S.G}$PEPTIDE1,PEPTIDE1,1:R1-8:R2$$$V2.0) had an IC50 in data set [1] of 57.4 µM.

In data set [1], `N=C(N)NCCC[C@@H]1NC(=O)[C@H](CCCNC(=N)N)NC(=O)[C@@H](CCCNC(=N)N)NC(=O)[C@@H](CCCNC(=N)N)NC(=O)[C@H](CO)NC(=O)[C@H](Cc2ccc(-c3ccccc3)cc2)NC(=O)[C@H](CO)NC(=O)[C@H](CCCCN)NC1=O` had an IC50 of 2.3 µM. Further, the EC50 in the data set with dengue virus type 2 (setting [5]) worked out at 141 µM. In data set [3], this molecule displayed a CC50 at 96 h of over 400 µM. `N=C(N)NCCC[C@@H]1NC(=O)[C@H](CCCNC(=N)N)NC(=O)[C@@H](CCCNC(=N)N)NC(=O)[C@@H](Cc2ccc3ccccc3c2)NC(=O)[C@H](Cc2ccccc2)NC(=O)[C@H](CCc2ccccc2)NC(=O)[C@@H](Cc2ccccc2)NC(=O)[C@H](CCCCN)NC1=O` gave an IC50 in data set [1] of 1.7 µM. Also, the EC50 in the data set on dengue virus type 2 (setting [5]) was 4.6 µM. In addition, it took 86 µM to reach half-maximal cytotoxicity in data set [3] (CC50 at 96 h).
